Assay results taken from PubChem BioAssay AID1963848 (Molecular Pharmacology Branch, DTP, NCI, 2024).
Where “and” joins values, the source holds several entries; their conditions need not be identical. Equal values may be shown once.

Tested on: 379773-124-R-J2-PDC spheroid viability
Assay: Anticancer human tumor 379773-124-R-J2-PDC patient-derived endometrial carcinoma cell line growth inhibition [POLQ]
Conditions: spheroids with HUVEC and MSC; for viability, T/C: stronger effect = lower value; active means viability on the fitted dose curve at most 10% of control; inactive means the rest
Method: Multicellular complex tumor spheroid response to Polymerase (POL) inhibitors (novobiocin, ART-558, RP6685) in combination with a variety of drugs and investigational agents in selected tumor cell lines
The POL inhibitors (novobiocin, ART-558, and RP6685) were evaluated both individually and in combination with standard of care and investigational anticancer small molecules within a complex spheroid model of solid tumors. . Complex spheroids include a stromal component modeled by human endothelial cells (HUVEC) and fibroblasts modeled by human mesenchymal stem cells (MSCs). The concentration ranges selected for each drug and investigational agent were based upon clinically achievable concentrations if the clinical Cmax of the agent was known.
Compounds. The drugs and investigational agents: novobiocin (NSC847541), ART-558 (NSC835418), RP-6685 (NSC848927), peposertib (NSC802822), ceralasertib (NSC780249), elimusertib (NSC800525), camonsertib (NSC841442), AZD-1390 (NSC803789), olaparib (NSC753686), talazoparib (NSC767125), rucaparib (NSC756644), sotorasib (NSC818433), MRTX-1133 (NSC836407), SN-38 (NSC673596), topotecan (NSC609699), epotoside (NSC141540), doxorubicin (NSC123127), gemcitabine (NSC613327), 5-fluorouracil (NSC19893), paclitaxel (NSC125973), vemurafenib (NSC761431), MSA-2 (NSC828583), SN-011 (NSC837082), adavosertib (NSC754352), prexasertib (NSC758257), carboplatin (NSC241240) and oxaliplatin (NSC266046), were obtained from the National Cancer Institute (NCI) Developmental Therapeutics Program Chemical Repository (21). The FDA-approved anticancer drug set is available from the Developmental Therapeutics Program at https://dtp.cancer.gov/organization/dscb/obtaining/. […] The stock solutions were prepared in dimethyl sulfoxide (DMSO, Sigma-Aldrich, St. Louis, MO, cat. D2650), except for the platinum compounds which were prepared in saline (Quality Biological, Gaithersburg, MD, cat. 114-055-101), at 800-fold the tested concentration and stored at -70 degrees C prior to their use. All drugs and investigational agents were tested over a range starting from a high concentration at or near the clinical Cmax and decreasing in half-log increments. If the clinical Cmax for an agent had not been determined, the highest concentration tested was 10 microM, except for SN-38, which was tested at a high concentration of 1 microM.
Cell Culture. All cells were maintained in an incubator at 37 degrees C and 5% CO2 with 95% humidity. The PDC lines were cultured according to standard operating procedures established by the NCI PDMR (https://pdmr.cancer.gov). Table 3 of the manuscript, lists the cell lines along with the number of the three cell types plated to form the mct-spheroids and media for tumor cell growth. After thawing, all PDC lines, except 997537-175-T-J1-PDC and 415267-285-R-J2-PDC, were cultured in Matrigel-coated flasks prepared with a working solution of 1X Ham's F-12 nutrient mix, without supplementation (Thermo Fisher Scientific, cat. 11765054), 100 U/mL penicillin-streptomycin (Thermo Fisher Scientific, cat. 15140122), and 2.5% Matrigel (Corning Inc., Corning, NY, cat. 354248) for the first three passages. The two PDC lines 997537-175-T-J1-PDC and 415267-285-R-J2-PDC were cultured on uncoated flasks. The 857933-349-R-J2-PDC line was cultured in 6C/Colon 1B media containing advanced DMEM/F-12 (Thermo Fisher Scientific, cat. 12634028), 10 mM HEPES (Thermo Fisher Scientific, cat. 15630080), 1X GlutaMAX supplement (Thermo Fisher Scientific, cat. 35050061), 0.1 mg/mL primocin (InvivoGen, San Diego, CA, cat. ant-pm-2), 10% defined fetal bovine serum, heat inactivated (HyClone Laboratories Inc., Logan, UT, cat. SH30070.03HI), 50% L-WRN conditioned media (ATCC, cat. CRL-3276), 1.25 mM N-Acetyl-L-cysteine (Sigma-Aldrich, cat. A9165), 10 mM nicotinamide (Sigma-Aldrich, cat. N0636), 1X B-27 supplement (Thermo Fisher Scientific, cat. 17504044), 1X N-2 supplement (Thermo Fisher Scientific, cat. […]
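Further: spheroids exposed to drugs for seven days before readout.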
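Wherever viability, T/C is given: percent viability relative to DMSO vehicle control taken as 100%.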

CC(=O)O[C@H]1C(=O)[C@@]2(C)[C@H]([C@H](OC(=O)c3ccccc3)[C@]3(O)C[C@H](OC(=O)[C@H](O)[C@@H](NC(=O)c4ccccc4)c4ccccc4)C(C)=C1C3(C)C)[C@]1(OC(C)=O)CO[C@@H]1C[C@@H]2O
7.9% and 9.86% and 6.94%: viability, T/C (compound 3 µM)
< 9.49 nM: IC50 (curve of compound)
14.2% and 12.2% and 9.35%: viability, T/C (compound 0.0949 µM)
9.35% and 10.1% and 7.28%: viability, T/C (compound 0.949 µM)
inactive: viability, T/C (compound 0.00949 µM) 21.2% and 20.1% and 16.9%
10.6% and 11.8% and 8.52%: viability, T/C (compound 0.3 µM)
7.51% and 10.1% and 8.5%: viability, T/C (compound 0.03 µM)

COc1cc2cc(C(=O)CCC(=O)O)sc2cc1OC
> 10000 nM: IC50 (curve of compound)
inactive: viability, T/C (compound 0.0316 µM) 89.3% and 91.6% (2×) | viability, T/C (compound 0.1 µM) 85.4% and 96.8% and 107% | viability, T/C (compound 0.316 µM) 85.8% and 90.2% and 80.9% | viability, T/C (compound 1 µM) 94.6% and 96.7% and 94% | viability, T/C (compound 3.16 µM) 105% and 95.3% and 92.9% | viability, T/C (compound 10 µM) 91.6% and 79.1% and 73.2%

CC1COCCN1c1cc(C2(O)CC3CCC(C2)O3)c2cnn(-c3ccn[nH]3)c2n1 (configuration not stated)
inactive: viability, T/C (compound 0.0316 µM) 90.7% and 78.4% and 84.5% | viability, T/C (compound 0.1 µM) 43% and 48.6% and 58.8% | viability, T/C (compound 0.316 µM) 11.1% and 12% and 16.6%
active: viability, T/C (compound 1 µM) 10.4% and 9.93% and 13.2% | viability, T/C (compound 3.16 µM) 8.43% and 7.19% and 10.1% | viability, T/C (compound 10 µM) 2.25% and 2.29% and 3.67%
84.4 nM and 94.4 nM and 127 nM: IC50 (curve of compound)

COc1cccc2c1C(=O)c1c(O)c3c(c(O)c1C2=O)CC(O)(C(=O)CO)CC3OC1CC(N)C(O)C(C)O1 (configuration not stated)
7.16% and 12.4% and 5.32%: viability, T/C (compound 0.316 µM)
active: viability, T/C (compound 1 µM) 7.82% and 10.6% and 5.98% | viability, T/C (compound 3.16 µM) 1.99% and 2.49% and 0.93% | viability, T/C (compound 10 µM) 0.82% and 0.3% and 0.62%
inactive: viability, T/C (compound 0.0316 µM) 78.1% and 95.3% and 81.8% | viability, T/C (compound 0.1 µM) 25% and 40.3% and 29.4%
58.1 nM and 80.7 nM and 63.6 nM: IC50 (curve of compound)

CC[C@@]1(O)C(=O)OCc2c1cc1n(c2=O)Cc2cc3c(CN(C)C)c(O)ccc3nc2-1 + Cc1cccc(N(C)C(=O)C2C(O)CCN2c2nc(C)cc(C(F)(F)F)c2C#N)c1
16.3 nM: IC50 (curve of first compound, second compound 10 µM)
20.2 nM: IC50 (curve of first compound, second compound 1 µM)
inactive: viability, T/C (second compound 0.0316 µM, first compound 0.000316 µM) 90.3% | viability, T/C (second compound 0.0316 µM, first compound 0.001 µM) 89.1% | viability, T/C (second compound 0.0316 µM, first compound 0.00316 µM) 77.8% | viability, T/C (second compound 0.0316 µM, first compound 0.01 µM) 85.4% | viability, T/C (second compound 0.0316 µM, first compound 0.0316 µM) 39.6% | viability, T/C (second compound 0.0316 µM, first compound 0.1 µM) 14.2% | viability, T/C (second compound 0.1 µM, first compound 0.000316 µM) 89.2% | viability, T/C (second compound 0.1 µM, first compound 0.001 µM) 88.6% | viability, T/C (second compound 0.1 µM, first compound 0.00316 µM) 84.1% | viability, T/C (second compound 0.1 µM, first compound 0.01 µM) 81.9% | viability, T/C (second compound 0.1 µM, first compound 0.0316 µM) 32.9% | viability, T/C (second compound 0.1 µM, first compound 0.1 µM) 14% | viability, T/C (second compound 0.316 µM, first compound 0.000316 µM) 87.3% | viability, T/C (second compound 0.316 µM, first compound 0.001 µM) 77.5% | viability, T/C (second compound 0.316 µM, first compound 0.00316 µM) 85.4% | viability, T/C (second compound 0.316 µM, first compound 0.01 µM) 85.7% | viability, T/C (second compound 0.316 µM, first compound 0.0316 µM) 34.8% | viability, T/C (second compound 0.316 µM, first compound 0.1 µM) 13.8% | viability, T/C (second compound 1 µM, first compound 0.000316 µM) 86.6% | viability, T/C (second compound 1 µM, first compound 0.001 µM) 83.3% | viability, T/C (second compound 1 µM, first compound 0.00316 µM) 95.1% | viability, T/C (second compound 1 µM, first compound 0.01 µM) 86.8% | viability, T/C (second compound 1 µM, first compound 0.0316 µM) 26.7% | viability, T/C (second compound 1 µM, first compound 0.1 µM) 16% | viability, T/C (second compound 3.16 µM, first compound 0.000316 µM) 84.9% | viability, T/C (second compound 3.16 µM, first compound 0.001 µM) 87.7% | viability, T/C (second compound 3.16 µM, first compound 0.00316 µM) 93.3% | viability, T/C (second compound 3.16 µM, first compound 0.01 µM) 87% | viability, T/C (second compound 3.16 µM, first compound 0.0316 µM) 23% | viability, T/C (second compound 3.16 µM, first compound 0.1 µM) 17.2% | viability, T/C (second compound 10 µM, first compound 0.000316 µM) 97.7% | viability, T/C (second compound 10 µM, first compound 0.001 µM) 95% | viability, T/C (second compound 10 µM, first compound 0.00316 µM) 86.4% | viability, T/C (second compound 10 µM, first compound 0.01 µM) 70.6% | viability, T/C (second compound 10 µM, first compound 0.0316 µM) 22.1% | viability, T/C (second compound 10 µM, first compound 0.1 µM) 17.8%
22.2 nM: IC50 (curve of first compound, second compound 0.316 µM)
21.1 nM: IC50 (curve of first compound, second compound 0.1 µM)
19.5 nM: IC50 (curve of first compound, second compound 3.16 µM)
24.3 nM: IC50 (curve of first compound, second compound 0.0316 µM)

COc1ccc([C@@H](O)c2cc(-c3ncnc4cc(N5CCOCC5)ccc34)c(F)cc2Cl)nn1
inactive: viability, T/C (compound 0.0316 µM) 92.5% and 98.9% and 94.2% | viability, T/C (compound 0.1 µM) 91.3% and 93.2% and 82.2% | viability, T/C (compound 0.316 µM) 79.4% and 93.5% and 84.7% | viability, T/C (compound 1 µM) 99.3% and 110% and 87.4% | viability, T/C (compound 3.16 µM) 67.8% and 76.8% and 86.3% | viability, T/C (compound 10 µM) 37.9% and 43.7% and 38.1%
6280 nM and 8030 nM and 7520 nM: IC50 (curve of compound)
